# Laboratory results reported in patent publication US20240132450A1, “MODULATORS OF G PROTEIN-COUPLED RECEPTOR 88” (ACADIA Pharmaceuticals Inc., priority 2020, published 2024).
# Target: hGPR88 receptor (Homo sapiens, UniProt Q9GZN0)
# Assay: hGPR88-HEK cAMP accumulation assay
# Conditions: GRP88 agonist activity (EC50), HEK-293 cells expressing human recombinant GPR88, forskolin 200 nM, High/Medium/Low bands
# Description: Biological Assay 1: hGPR88-HEK cAMP Accumulation Assay
# Cryopreserved vials of HEK-293 cells expressing human recombinant GPR88 receptor are re-suspended in KRH assay buffer and 5 μl of cell solution is suspended in test wells at a seeding density of 2500±500 cells per well using the multidrop to provide a final reaction volume of 10 μl containing 0.5% DMSO. Assay plate is incubated for 30 min at room temperature and the reaction is terminated by addition of 5 μl of each of the cAMP detection reagents of the cAMP Gi kit (Cisbio Bioassays, 62AM9PEJ), diluted in cell lysis buffer, to each well using the multidrop in the following order: first the cAMP-d2 conjugate, then the anti-cAMP cryptate conjugate. […] Raw counts were converted to cAMP concentrations via a standard curve before EC50 and Emax determination. Data is expressed as % decrease in forskolin stimulated cAMP compared to cells treated with vehicle alone in the same buffer and on the same plate.
# hGPR88 receptor, sequence (Q9GZN0 whole entry): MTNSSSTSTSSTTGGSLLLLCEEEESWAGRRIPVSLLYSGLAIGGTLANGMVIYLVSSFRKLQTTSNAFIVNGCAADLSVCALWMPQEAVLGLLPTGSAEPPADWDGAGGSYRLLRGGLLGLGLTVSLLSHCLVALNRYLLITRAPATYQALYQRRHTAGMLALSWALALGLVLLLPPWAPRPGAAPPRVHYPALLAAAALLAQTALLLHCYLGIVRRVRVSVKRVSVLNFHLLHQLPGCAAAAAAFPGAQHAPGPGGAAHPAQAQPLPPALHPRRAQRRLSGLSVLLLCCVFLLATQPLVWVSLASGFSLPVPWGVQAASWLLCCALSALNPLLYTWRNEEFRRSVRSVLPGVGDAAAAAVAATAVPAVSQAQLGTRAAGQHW
row,SMILES,EC50 [µM]
1,"COCc1ccc(-c2ccc(N(C[C@@H](O)[C@@H](C)OC)C(=O)C3CC3c3ccccn3)cc2)cc1 (mixture of isomers) [Example 5, (rac-trans)-N-((2R,3R)-2-hydroxy-3-methoxybutyl)-N-(4′-methoxymethyl)-[1,1′-biphenyl]-4-yl)-2-(pyridin-2-yl)cyclopropane-1-carboxamide]",> 5
2,"COCc1ccc(-c2ccc3c(c2)CCCN3C(=O)C2CC2c2ccccn2)cc1 (racemic) [Example 43, (6-(4-(methoxymethyl)phenyl)-3,4-dihydroquinolin-1(2H)-yl)((rac-trans)-2-(pyridin-2-yl)cyclopropyl)methanone]",> 5
3,"CN(C)Cc1ccc(-c2ccc(NC(=O)C3CC3c3ccccn3)cc2)cc1 (racemic) [Example 48, (rac-trans)-N-(4′-(dimethylamino)methyl)-[1,1′-biphenyl]-4-yl)-2-(pyridin-2-yl)cyclopropane-1-carboxamide]",> 5
4,"COCc1ccc(-c2ccc(NC(=O)C3CC3c3ccc(F)cc3)cc2)cc1 (racemic) [Example 54, (rac-trans)-2-(4-fluorophenyl)-N-(4′-(methoxymethyl)-[1,1′-biphenyl]-4-yl)cyclopropane-1-carboxamide]",> 5
5,"COCc1ccc(-c2ccc(NC(=O)C3CC3c3ccccc3)cc2)cc1 (racemic) [Example 61, (rac-trans)-N-(4′-(methoxymethyl)-[1,1′-biphenyl]-4-yl)-2-phenylcyclopropane-1-carboxamide]",> 5
6,"COCc1ccc(-c2ccc(N(C)C(=O)C3CC3c3ccccn3)cc2)cc1 (racemic) [Example 73, (rac-trans)-N-(4′-(methoxymethyl)-[1,1′-biphenyl]-4-yl)-N-methyl-2-(pyridin-2-yl)cyclopropane-1-carboxamide]",> 5
7,"CN(C)Cc1ccc(-c2ccc(NC(=O)C3CC3c3ccccn3)nc2)cc1 (racemic) [Example 82, (rac-trans)-N-(5-(4-((dimethylamino)methyl)phenyl)pyridin-2-yl)-2-(pyridin-2-yl)cyclopropane-1-carboxamide]",> 5
8,"CC(C)Oc1ccc(-c2ccc(NC(=O)C3CC3c3ccccn3)cc2)cc1 (racemic) [Example 90, (rac-trans)-N-(4′-isopropoxy-[1,1′-biphenyl]-4-yl)-2-(pyridin-2-yl)cyclopropane-1-carboxamide]",1 to 5
9,"CC(C)Oc1ccc(-c2ccc(NC(=O)C3CC3c3ccccn3)cc2)cn1 (racemic) [Example 109, (rac-trans)-N-(4-(6-isopropoxypyridin-3-yl)phenyl)-2-(pyridin-2-yl) cyclopropane-1-carboxamide]",1 to 5

# Continued, values first:
row,EC50 [µM],SMILES
1,1 to 5,"CCCc1ccc(C23CC(NC(=O)C4CC4c4ccccn4)(C2)C3)cc1 (racemic) [Example 34, (rac-trans)-N-(3-(4-propylphenyl)bicyclo[1.1.1]pentan-1-yl)-2-(pyridin-2-yl)cyclopropane-1-carboxamide]"
2,1 to 5,"O=C(Nc1ccc(-c2ccc(CN3CCOCC3)cc2)cc1)C1CC1c1ccccn1 (racemic) [Example 37, (1R*,2R*)-N-(4′-(morpholinomethyl)-[1,1′-biphenyl]-4-yl)-2-(pyridin-2-yl)cyclopropane-1-carboxamide]"
3,1 to 5,"COCc1ccc(C23CC(NC(=O)C4CC4c4ccccn4)(C2)C3)cc1 (racemic) [Example 44, (rac-trans)-N-(3-(4-(methoxymethyl)phenyl)bicyclo[1.1.1]pentan-1-yl)-2-(pyridin-2-yl)cyclopropane-1-carboxamide]"
4,1 to 5,"COCc1ccc(-c2ccc3c(c2)CCN3C(=O)C2CC2c2ccccn2)cc1 (racemic) [Example 50, (5-(4-(methoxymethyl)phenyl)indolin-1-yl)((rac-trans)-2-(pyridin-2-yl)cyclopropyl)methanone]"
5,1 to 5,"O=C(Nc1ccc(-c2ccc(CN3CCOCC3)cc2)cn1)C1CC1c1ccccn1 (racemic) [Example 83, (rac-trans)-N-(5-(4-(morpholinomethyl)phenyl)pyridin-2-yl)-2-(pyridin-2-yl)cyclopropane-1-carboxamide]"
